Measurements published in ChEMBL document CHEMBL4359837, “Discovery of 2-(4-Chloro-3-(trifluoromethyl)phenyl)-N-(4-((6,7-dimethoxyquinolin-4-yl)oxy)phenyl)acetamide (CHMFL-KIT-64) as a Novel Orally Available Potent Inhibitor against Broad-Spectrum Mutants of c-KIT Kinase for Gastrointestinal Stromal Tumors” (J Med Chem, 2019).
The source made the active and inactive calls. No cut-off for these calls is given here.

Assays:
[1] = Growth inhibition of mouse BAF3 cells measured after 72 hrs by CCK8 assay; type: cell-based
[2] = target: Mast/stem cell growth factor receptor Kit (Mus musculus) (UniProt P05532); test: Inhibition of c-KIT in mouse BAF3(transformed) cells assessed as growth inhibition after 72 hrs by CCK8 assay
Mus musculus [3] = species: Mus musculus; test: Inhibition of c-KIT V654A/V559D double mutant in mouse BAF3(transformed) cells assessed as growth inhibition after 72 hrs by CCK8 assay
Mus musculus [4] = species: Mus musculus; test: Inhibition of c-KIT T670E mutant in mouse BAF3(transformed) cells assessed as growth inhibition after 72 hrs by CCK8 assay
Mus musculus [5] = species: Mus musculus; test: Inhibition of c-KIT T670I/V559D double mutant in mouse BAF3(transformed) cells assessed as growth inhibition after 72 hrs by CCK8 assay
Mus musculus [6] = species: Mus musculus; test: Inhibition of c-KIT S709F mutant in mouse BAF3(transformed) cells assessed as growth inhibition after 72 hrs by CCK8 assay
Mus musculus [7] = species: Mus musculus; test: Inhibition of c-KIT D816E mutant in mouse BAF3(transformed) cells assessed as growth inhibition after 72 hrs by CCK8 assay
Mus musculus [8] = species: Mus musculus; test: Inhibition of c-KIT D820G mutant in mouse BAF3(transformed) cells assessed as growth inhibition after 72 hrs by CCK8 assay
[9] = Growth inhibition of human GIST48B cells after 72 hrs by CCK8 assay; type: functional
[10] = Antitumor activity against mouse BAF3(transformed) cells harboring c-KIT T670I mutant implanted in BALB/c nu mouse assessed as tumor growth inhibition at 40 mg/kg/day, po administered via gavage for 11 days relative to control; type: functional; settings: 264 h, read-out: TGI
GISTT1 [11] = type: functional, Homo sapiens; settings: for inhibition in vivo at 20 mg/kg/day: Mus musculus, GISTT1, po, 672 h, read-out: TGI
[12] = test system: Mast/stem cell growth factor receptor Kit (Homo sapiens), P10721 [V559D]; settings: Mus musculus
Description: Inhibition of c-KIT V559D mutant in mouse BAF3(transformed) cells assessed as growth inhibition after 72 hrs by CCK8 assay

[13] = test system: Mast/stem cell growth factor receptor Kit (Homo sapiens), P10721 [D816H]; settings: Mus musculus
Description: Inhibition of c-KIT D816H mutant in mouse BAF3(transformed) cells assessed as growth inhibition after 72 hrs by CCK8 assay

[14] = test system: Mast/stem cell growth factor receptor Kit (Homo sapiens), P10721 [D816V]; settings: Mus musculus
Description: Inhibition of c-KIT D816V mutant in mouse BAF3(transformed) cells assessed as growth inhibition after 72 hrs by CCK8 assay

[15] = test system: Mast/stem cell growth factor receptor Kit (Homo sapiens), P10721 [D820E]; settings: Mus musculus
Description: Inhibition of c-KIT D820E mutant in mouse BAF3(transformed) cells assessed as growth inhibition after 72 hrs by CCK8 assay

[16] = test system: Mast/stem cell growth factor receptor Kit (Homo sapiens), P10721 [D820Y]; settings: Mus musculus
Description: Inhibition of c-KIT D820Y mutant in mouse BAF3(transformed) cells assessed as growth inhibition after 72 hrs by CCK8 assay

[17] = test system: Mast/stem cell growth factor receptor Kit (Homo sapiens), P10721 [A829P]; settings: Mus musculus
Description: Inhibition of c-KIT A829P mutant in mouse BAF3(transformed) cells assessed as growth inhibition after 72 hrs by CCK8 assay

[18] = test system: Mast/stem cell growth factor receptor Kit (Homo sapiens), P10721 [UNDEFINED MUTATION]; settings: GISTT1, 0.1 uM
Description: Inhibition of c-KIT 560 to 578 deletion mutant in human GISTT1 cells assessed as reduction in STAT3 phosphorylation at Y705 residue at 0.1 uM measured after 2 hrs by Western blot analysis

[19] = test system: Mast/stem cell growth factor receptor Kit (Homo sapiens), P10721 [UNDEFINED MUTATION]; settings: GISTT1, 0.1 uM; remark: listed apart in the source
Description: Inhibition of c-KIT 560 to 578 deletion/T670I mutant in human GISTT1 cells assessed as reduction in STAT3 phosphorylation at Y705 residue at 0.1 uM measured after 2 hrs by Western blot analysis

[20] = test system: Mast/stem cell growth factor receptor Kit (Homo sapiens), P10721 [UNDEFINED MUTATION]; settings: 0.1 uM
Description: Inhibition of c-KIT 560 to 578 deletion/T670I mutant in human GIST5R assessed as reduction in STAT3 phosphorylation at Y705 residue at 0.1 uM measured after 2 hrs by Western blot analysis

[21] = test system: Mast/stem cell growth factor receptor Kit (Homo sapiens), P10721 [UNDEFINED MUTATION]; settings: GISTT1, 0.1 uM; remark: listed apart in the source
Description: Inhibition of c-KIT 560 to 578 deletion/T670I mutant in human GISTT1 cells assessed as reduction in c-KIT autophosphorylation at Y719 residue at 0.1 uM measured after 2 hrs by Western blot analysis

[22] = test system: Mast/stem cell growth factor receptor Kit (Homo sapiens), P10721 [UNDEFINED MUTATION]; settings: 0.1 uM; remark: listed apart in the source
Description: Inhibition of c-KIT 560 to 578 deletion/T670I mutant in human GIST5R cells assessed as reduction in c-KIT autophosphorylation at Y719 residue at 0.1 uM measured after 2 hrs by Western blot analysis

[23] = test system: Mast/stem cell growth factor receptor Kit (Homo sapiens), P10721 [UNDEFINED MUTATION]; settings: 0.1 uM; remark: listed apart in the source
Description: Inhibition of c-KIT 560 to 578 deletion/T670I mutant in human GIST5R cells assessed as reduction in c-KIT autophosphorylation at Y823 residue at 0.1 uM measured after 2 hrs by Western blot analysis

[24] = test system: Mast/stem cell growth factor receptor Kit (Homo sapiens), P10721 [UNDEFINED MUTATION]; settings: GISTT1, 0.1 uM; remark: listed apart in the source
Description: Inhibition of c-KIT 560 to 578 deletion mutant in human GISTT1 cells assessed as reduction in ERK phosphorylation at T204 residue at 0.1 uM measured after 2 hrs by Western blot analysis

[25] = target: Proto-oncogene tyrosine-protein kinase receptor Ret (Homo sapiens, UniProt P07949); test: Binding affinity to wild-type human partial length RET (E713 to D1014 residues) expressed in bacterial expression system assessed as residual binding level at 1 uM by Kinomescan method relative to control
[26] = target: Mast/stem cell growth factor receptor Kit (Homo sapiens, UniProt P10721); test: Inhibition of human KIT
[27] = target: Platelet-derived growth factor receptor beta (Homo sapiens, UniProt P09619); test: Inhibition of recombinant human His-tagged PDGFRB cytoplasmic domain (558 to 1106 residues) expressed in baculovirus expression system by Z-lyte assay
[28] = target: Proto-oncogene tyrosine-protein kinase receptor Ret (Mus musculus) (UniProt P35546); test: Inhibition of RET in mouse BAF3(transformed) cells assessed as growth inhibition after 72 hrs by CCK8 assay
[29] = target: T1, Mast/stem cell growth factor receptor Kit (Homo sapiens, UniProt P10721, 560-578DEL/T670I); type: cell-based
[30] = target: T1, Mast/stem cell growth factor receptor Kit; type: cell-based; remark: listed apart in the source
[31] = target: T2, Mast/stem cell growth factor receptor Kit (Homo sapiens, UniProt P10721, 560-578DEL); type: cell-based, GISTT1
[32] = target: T2, Mast/stem cell growth factor receptor Kit; type: cell-based, GISTT1; remark: listed apart in the source
[33] = target: T1, Mast/stem cell growth factor receptor Kit; type: cell-based, GISTT1
[34] = target: RAC-alpha serine/threonine-protein kinase (Homo sapiens) (UniProt P31749); type: cell-based; settings: GISTT1
Homo sapiens = species: Homo sapiens; type: functional, cell-based
[35] = Half life in Sprague-Dawley rat at 1 mg/kg, iv by LC-MS/MS analysis; type: ADME, organism-based; settings: in vivo
[36] = Half life in mouse at 10 mg/kg, po by LC-MS/MS analysis; type: ADME, organism-based; settings: in vivo
[37] = Cmax in mouse at 10 mg/kg, po by LC-MS/MS analysis; type: ADME, organism-based; set-up: dose 10 mg/kg, route oral; settings: in vivo
[38] = Half life in Beagle dog at 1 mg/kg, iv by LC-MS/MS analysis; type: ADME, organism-based, Canis lupus familiaris; settings: in vivo
Mus musculus [39] = type: functional, organism-based; settings: BALB/c, 80 mg/kg, TDE = time-dependent effect
Mus musculus [40] = type: functional, organism-based; settings: BALB/c, 80 mg/kg
GISTT1 [41] = type: functional, Homo sapiens
GISTT1 [42] = type: functional, cell-based; settings: Homo sapiens
[43] = test system: Mast/stem cell growth factor receptor Kit (Homo sapiens), P10721 [V654A]; settings: Mus musculus
Description: Inhibition of c-KIT V654A mutant in mouse BAF3(transformed) cells assessed as growth inhibition after 72 hrs by CCK8 assay

[44] = test system: Mast/stem cell growth factor receptor Kit (Homo sapiens), P10721 [N822K]; settings: Mus musculus
Description: Inhibition of c-KIT N822K mutant in mouse BAF3(transformed) cells assessed as growth inhibition after 72 hrs by CCK8 assay

[45] = test system: Mast/stem cell growth factor receptor Kit (Homo sapiens), P10721 [Y823D]; settings: Mus musculus
Description: Inhibition of c-KIT Y823D mutant in mouse BAF3(transformed) cells assessed as growth inhibition after 72 hrs by CCK8 assay

[46] = test system: Mast/stem cell growth factor receptor Kit (Homo sapiens), P10721 [UNDEFINED MUTATION]; settings: GISTT1
Description: Inhibition of c-KIT 560 to 578 deletion/T670I mutant in human GISTT1 cells assessed as growth inhibition after 72 hrs by CCK8 assay

T1 sequence (P10721 whole entry, looked up, stated change not applied): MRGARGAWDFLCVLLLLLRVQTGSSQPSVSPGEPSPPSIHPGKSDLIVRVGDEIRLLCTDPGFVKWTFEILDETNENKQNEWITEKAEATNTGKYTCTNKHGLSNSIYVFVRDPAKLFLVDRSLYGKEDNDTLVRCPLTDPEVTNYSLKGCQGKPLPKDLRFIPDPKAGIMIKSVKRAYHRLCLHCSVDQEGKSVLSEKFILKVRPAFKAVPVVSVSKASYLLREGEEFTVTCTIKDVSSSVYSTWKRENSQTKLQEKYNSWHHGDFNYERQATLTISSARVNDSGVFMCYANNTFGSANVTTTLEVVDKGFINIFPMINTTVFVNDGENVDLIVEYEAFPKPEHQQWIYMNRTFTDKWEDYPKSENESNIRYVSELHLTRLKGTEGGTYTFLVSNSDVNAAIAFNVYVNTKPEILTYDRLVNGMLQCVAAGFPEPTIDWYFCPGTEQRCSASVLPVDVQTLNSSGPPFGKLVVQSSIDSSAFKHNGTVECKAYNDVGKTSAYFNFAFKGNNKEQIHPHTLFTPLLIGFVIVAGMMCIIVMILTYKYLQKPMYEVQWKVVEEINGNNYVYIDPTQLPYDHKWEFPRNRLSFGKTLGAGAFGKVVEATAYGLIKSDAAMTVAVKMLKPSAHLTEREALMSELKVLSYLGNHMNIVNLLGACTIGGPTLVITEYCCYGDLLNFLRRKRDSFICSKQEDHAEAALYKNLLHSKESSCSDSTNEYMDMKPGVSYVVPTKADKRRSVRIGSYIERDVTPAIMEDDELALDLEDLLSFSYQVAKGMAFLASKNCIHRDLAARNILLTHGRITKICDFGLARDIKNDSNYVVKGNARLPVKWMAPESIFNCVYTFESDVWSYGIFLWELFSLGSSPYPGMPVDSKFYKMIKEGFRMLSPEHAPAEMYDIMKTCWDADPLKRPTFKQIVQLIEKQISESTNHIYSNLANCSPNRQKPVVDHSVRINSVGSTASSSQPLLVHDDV
Mast/stem cell growth factor receptor Kit (Homo sapiens), P10721 [UNDEFINED MUTATION], sequence (P10721 whole entry, looked up, change not shown, the tested form may be a part): as the sequence (P10721 whole entry, looked up, stated change not applied) above
Mast/stem cell growth factor receptor Kit (Homo sapiens), P10721 [D816V], sequence (P10721 whole entry D816V): as the sequence (P10721 whole entry, looked up, stated change not applied) above, with D816V counted along it
Mast/stem cell growth factor receptor Kit (Homo sapiens), P10721 [A829P], sequence (P10721 whole entry A829P): as the sequence (P10721 whole entry, looked up, stated change not applied) above, with A829P counted along it
Mast/stem cell growth factor receptor Kit (Homo sapiens), P10721 [D816H], sequence (P10721 whole entry D816H): as the sequence (P10721 whole entry, looked up, stated change not applied) above, with D816H counted along it

CCN(CC)CCNC(=O)c1c(C)[nH]c(/C=C2\C(=O)Nc3ccc(F)cc32)c1C [SUNITINIB]
GI50 at 72 h [1]: 1010 nM | GI50 [2]: 3 nM | GI50 (Mus musculus [3]): 19 nM | GI50 (Mus musculus [4]): 89 nM | GI50 (Mus musculus [5]): 12 nM | GI50 (Mus musculus [6]): 28 nM | GI50 (Mus musculus [7]): 59 nM | GI50 (Mus musculus [8]): 389 nM | GI50 [9]: 740 nM | inhibition in vivo at 40 mg/kg/day [10]: 96.7% | inhibition in vivo at 20 mg/kg/day (GISTT1 [11]): 93.6% | GI50 [12]: 1 nM | GI50 [13]: 315 nM | GI50 [14]: 1720 nM | GI50 [15]: 93 nM | GI50 [16]: 172 nM | GI50 [17]: 18 nM | inhibition [18]: Active | inhibition [19]: Active | inhibition [20]: Active | inhibition [21]: Active | inhibition [22]: Active | inhibition [23]: Active | inhibition [24]: Active

COc1cc2nccc(Oc3ccc(NC(=O)Cc4ccc(Cl)c(C(F)(F)F)c4)cc3)c2cc1OC
GI50 at 72 h [1]: 5970 nM | GI50 [2]: 1 nM | GI50 (Mus musculus [3]): 42 nM | GI50 (Mus musculus [4]): 71 nM | GI50 (Mus musculus [5]): 45 nM | GI50 (Mus musculus [6]): 17 nM | GI50 (Mus musculus [7]): 16 nM | GI50 (Mus musculus [8]): 9 nM | Activity [25]: < 1% | IC50 [26]: 4 nM | IC50 [27]: 97 nM | GI50 [28]: 280 nM | GI50 [9]: 1370 nM | EC50 [29]: < 100 nM | EC50 [30]: < 100 nM | EC50 [31]: < 100 nM | EC50 [32]: < 100 nM | EC50 [33]: < 100 nM | inhibition [34]: inactive | Activity (Homo sapiens): Dose-dependent effect | half-life [35]: 15.8 h | half-life [36]: 4.5 h | Cmax [37]: 1390 ng/mL | half-life [38]: 20.6 h | inhibition (Mus musculus [39]): Tde | inhibition (Mus musculus [40]): inactive | inhibition in vivo at 40 mg/kg/day [10]: 90.2% | Activity (GISTT1 [41]): 0.14 g | TGI (GISTT1 [11]; Homo sapiens, 20 mg/kg): Dose-dependent effect | inhibition in vivo at 20 mg/kg/day (GISTT1 [11]): 59.4% | TGI (GISTT1 [42]): Dose-dependent effect | GI50 [12]: 6 nM | GI50 [43]: 320 nM | GI50 [13]: 97 nM | GI50 [14]: 1730 nM | GI50 [15]: 1 nM | GI50 [16]: 3 nM | GI50 [44]: 26 nM | GI50 [45]: 35 nM | GI50 [17]: 22 nM | GI50 [46]: 6 nM
